From paper PMC11117661, “Development of a Novel In Silico Classification Model to Assess Reactive Metabolite Formation in the Cysteine Trapping Assay and Investigation of Important Substructures” (Biomolecules, 2024) come the findings set out here.

A short description of data set [1]: cysteine trapping assay ([35S]cysteine, HPLC with radiomatic detector) for reactive metabolites. Conditions: for RI integrated area: human liver microsome 2 mg/mL, L-[35S]-Cysteine, NADPH, 37 °C, 2 h; for outcome in the cysteine trapping assay: threshold area 1000.
Method: (§1) The reagents for making the reaction solution were phosphate buffer (pH 7.4; 100 mM), ethylenediaminetetraacetic acid (EDTA; 1 mM) (Tokyo Kasei, Tokyo, Japan), MgCl2 hexahydrate (Fuji Film Wako Co., Ltd., Osaka, Japan, reagent special grade; 3 mM), glucose-6-phosphate (G6P; 5 mM) (Roche, Basel, Switzerland), G6P dehydrogenase (G6PDH; 1 IU) (Oriental Yeast Co., Ltd., Tokyo, Japan), human liver microsome solution (Xenotech, Kansas City, MO, USA; 2 mg/mL), and L-[35S]-Cysteine (PerkinElmer Japan Co., Ltd., Kanagawa, Japan; 3.7 MBq/mL), which were prepared using ultrapure water. The evaluation compound was dissolved in dimethyl sulfoxide (DMSO) and its concentration was adjusted to 4 mM. This was used as a substrate solution.
(§2) On ice, 239 µL of the reaction solution was dispensed into a glass tube and then 1.25 µL of the substrate solution was added, mixed, and placed in a water bath (PERSONAL-11, Taitec Co., Ltd., Saitama, Japan) at 37 °C. After pre-incubation for 5 min, 10 µL of 25 mM nicotinamide adenine dinucleotide phosphate (NADPH) (Roche, Basel, Switzerland) solution was added and mixed to a final concentration of 20 µM to initiate a metabolic reaction and incubated in a water bath at 37 °C for 2 h. After incubation, 500 µL of acetonitrile was added and mixed, and the tube was chilled on ice to deproteinize, after which 50 µL of 250 mM GSH solution was added and mixed to stop the reaction, and centrifuged (approximately 1500× g, 4°C, 10 min, CF16RXII, Hitachi, Ltd., Tokyo, Japan). After centrifugation, 750 µL of the supernatant was transferred to a new glass tube and concentrated by vacufugation (VC-96N, Taitec Co., Ltd., Saitama, Japan) for 2 h. After concentrating the solution, we added 100 µL of the redissolving solution (40% methanol solution), mixed it with a vortex (IS-MBI minimixer, Ikeda Rika Co., Ltd., Tokyo, Japan) to redissolve, and then the sample was placed in a filter tube [Merck Millipore, Darmstadt, Germany] and centrifuged (approximately 5000× g, room temperature, 10 min).
(§3) Both High Performance Liquid Chromatography (HPLC) (Nexera XR, Shimadzu Corporation, Kyoto, Japan) and a radiomatic detector (Radiomatic 610TR, PerkinElmer Japan Co., Ltd.) were used to analyze the prepared samples. The 35S content was detected by running the separated sample via the 45-min analytical method through a radiomatic detector. The mobile phase was composed of a gradient of 0.1% (v/v) formic acid/water and 0.1% (v/v) formic acid/acetonitrile, and the chromatographic separation was performed using a column (Synergi 4 μm Hydro-RP 80A 150 × 3.00 mm, Phenomenex, Torrance, CA, USA).
(§4) Considering this, the amount of covalent binding in microsomes in the in vitro covalent binding test of 50 pmol/g or more was judged as a risk. The threshold of the total RI integrated area in cysteine trapping at that time was about 1000 counts. Therefore, we labeled compounds with more than 1000 counts of RI integrated area as positive, and those with less than 1000 counts as negative.
The conditions of data set [2]: human, 2 h, 20 µM, pH 7.4.
Method: as §1, §2, §3, §4

The structures appear in SMILES notation. Read-outs that look alike come from different tables or passages of the source.

With `Cc1c(N(C)C)c(=O)n(-c2ccccc2)n1C` [Aminopyrine], in data set [1], the RI integrated area came out at 44.3 count.

Turning to `CCN(CC)Cc1cc(Nc2ccnc3cc(Cl)ccc23)ccc1O` [Amodiaquine], the RI integrated area in data set [1] is on record as 346.7 count. As to `CCc1oc2ccccc2c1C(=O)c1cc(Br)c(O)c(Br)c1` [Benzbromarone], the RI integrated area in data set [1] is on record as 4516.4 count. For the compound `Cn1c(=O)c2c(ncn2C)n(C)c1=O` [Caffeine], in data set [1], the RI integrated area is 22.4 count. As for `NC(=O)N1c2ccccc2C=Cc2ccccc21` [Carbamazepine], the RI integrated area in data set [1] was 61.8 count. The same measure, in the same setting: with `COC(=O)[C@H](c1ccccc1Cl)N1CCc2sccc2C1` [Clopidogrel] the figure was 708.2 count; with `O=C(O)Cc1ccccc1Nc1c(Cl)cccc1Cl` [Diclofenac], 1230.1 count; with `CNCCC(Oc1ccc(C(F)(F)F)cc1)c1ccccc1` (stereo not shown) [Fluoxetine], 153.8 count. Same read-out and setting: with `CC(C)C(=O)Nc1ccc([N+](=O)[O-])c(C(F)(F)F)c1` [Flutamide] the figure was 680.4 count; with `COc1ccc2c(c1)c(CC(=O)O)c(C)n2C(=O)c1ccc(Cl)cc1` [Indomethacin], 89.0 count; with `C[C@H]1COc2c(N3CCN(C)CC3)c(F)cc3c(=O)c(C(=O)O)cn1c23` [Levofloxacin], 150.3 count.

Take `O=C1NC(=O)C(c2ccccc2)(c2ccccc2)N1` [Phenytoin]: the RI integrated area in data set [1] worked out at 34.7 count.

`CCc1ccc(CCOc2ccc(CC3SC(=O)NC3=O)cc2)nc1` (stereo not shown) [Pioglitazone]: in data set [1], the RI integrated area is on record as 105.8 count and the “outcome in the cysteine trapping assay” value is “negative”. Take `CC[C@H](C)C(=O)O[C@H]1C[C@H](O)C=C2C=C[C@H](C)[C@H](CC[C@@H](O)C[C@@H](O)CC(=O)O)[C@H]21` [Pravastatin]: the RI integrated area in data set [1] was determined as 25.4 count. As for `CC(C)NCC(O)COc1cccc2ccccc12` (stereo not shown) [Propranolol], the RI integrated area in data set [1] amounted to 3667.2 count.

For `CC(C)c1nc(CN(C)C(=O)N[C@H](C(=O)N[C@@H](Cc2ccccc2)C[C@H](O)[C@H](Cc2ccccc2)NC(=O)OCc2cncs2)C(C)C)cs1` [Ritonavir], the RI integrated area in data set [1] was 593.9 count. On the same count and under the same terms, with `CN(CCOc1ccc(CC2SC(=O)NC2=O)cc1)c1ccccn1` (stereo not shown) [Rosiglitazone] the figure was 1593.7 count.

For the compound `Nc1c2c(nc3ccccc13)CCCC2` [Tacrine], in data set [2], the RI integrated area is on record as 243.5 count. `CC/C(=C(\c1ccccc1)c1ccc(OCCN(C)C)cc1)c1ccccc1` [Tamoxifen]: in data set [1], the RI integrated area stood at 162.1 count. `O=C(O)COc1ccc(C(=O)c2cccs2)c(Cl)c1Cl` [Tienilic acid]: the RI integrated area in data set [1] is recorded as 3783.7 count. As to `Cc1c(C)c2c(c(C)c1O)CCC(C)(COc1ccc(CC3SC(=O)NC3=O)cc1)O2` (stereo not shown) [Troglitazone], in data set [1], the RI integrated area was determined as 521.7 count and the “outcome in the cysteine trapping assay” value is given as “negative”.

For `COc1cc(C(=O)NS(=O)(=O)c2ccccc2C)ccc1Cc1cn(C)c2ccc(NC(=O)OC3CCCC3)cc12` [Zafirlukast], in data set [1], the RI integrated area stood at 263.4 count.

With `Cc1cc(CC(=O)O)n(C)c1C(=O)c1ccc(Cl)cc1` [Zomepirac], the RI integrated area in data set [1] is 217.5 count.
